Experimental data published in patent US20020055528A1, “Artemisinin analogs having antimalarial, antiproliferative, and antitumor activities and chemoselective methods of making the same” (priority 1999, published 2002).

Key:
Assay type in all cases: cell-based
SK-MEL2 = test: NCI 60 cell line screen (SRB), Melanoma
HS 578T = test: NCI 60 cell line screen (SRB), Breast Cancer
U251 = test: NCI 60 cell line screen (SRB), CNS Cancer
NCI-H460 = test: NCI 60 cell line screen (SRB), Non-Small Cell Lung Cancer
UACC-257 = test: NCI 60 cell line screen (SRB), Melanoma
SK-MEL-5 = test: NCI 60 cell line screen (SRB), Melanoma
UACC-62 = test: NCI 60 cell line screen (SRB), Melanoma
HCT-116 = test: NCI 60 cell line screen (SRB), Colon Cancer
RPMI-8226 = test: NCI 60 cell line screen (SRB), Leukemia
ACHN = test: NCI 60 cell line screen (SRB), Renal Cancer
MDA-MB231/ATCC = test: NCI 60 cell line screen (SRB), Breast Cancer; settings: MDA- (first line of MDA-MB231/ATCC)
MALME-3M = test: NCI 60 cell line screen (SRB), Melanoma
CAKI-1 = test: NCI 60 cell line screen (SRB), Renal Cancer
HT29 = test: NCI 60 cell line screen (SRB), Colon Cancer
[1] = tested on: murine keratinocyte cell line PE; test: Growth inhibition of PE cells, MTT assay; settings: 100 nanomolar; compared with calcitriol; FIG. 5
Method: To determine the inhibitory effect of the compositions of the present invention on cell proliferation, screening assays were performed on a murine keratinocyte cell line PE. Cell line PE was chosen for its particular sensitivity to the induction of omithine decarboxylase (ODC) activity by the extensively characterized tumor promoter TPA. Cell line PE was derived from a papilloma-induced in female SENCAR mice by a standard skin initiation/promotion protocol, see Yuspa, S. H., et al., Carcinogenesis, 7:949-958 (1986). PE cell culture medium consisted of Eagle's minimal essential medium without calcium chloride (Whittaker Bioproducts, Walkersville, Mass.) supplemented with 8% chelexed fetal calf serum and 1% antibiotic-antimycotic (Gibco BRL) and the addition of CaCI2 to 0.05 mM Ca^++
MTT [3-(4,5-dimethylthiazol-2-yl)-2,5-diphenyltetraxolium bromide] was purchased from Sigma Chemical Co. (St. Louis, Mo.), and TPA was supplied by L.C. Services (Woburn, Mass.). L-[^14C]omithine ([…]) was from Amersham/Searle Corp. (Arlington Heights, Ill.). Chemical solvents used in all assays of biological activity were of the highest grade commercially available.
Growth curves, shown in FIG. 5, for PE cells treated with calcitriol and the C-10 carbon-substituted dimers VII-f, VII-g and VII-h generated by assay for the reduction of the tetrazolium-based compound MTT, see Charmichael, et al., Cancer Res., 47:936-942 (1987). A mitochondrial dehydrogenase reduces MTT to a blue formazan product with an absorbance maximum of 505 nm in DMSO; the number of viable cells can thus be determined spectrophotometrically. PE cells were seeded at a density of 5,000 cells/well in 50 IL of medium into 96-well microtiter plates. Twelve hours later, the medium was removed, and cells were treated with 100 μL of fresh medium into which the appropriate amount of calcitriol or analog dissolved in dimethyl sulfoxide (DMSO) had been added, with the concentration of DMSO held constant at 0.1 %. […] At 24-hour intervals following the initial treatment of the cells with compounds, 0.1 mg (50 μL of a 2 mg/mL solution) of MTT was added to each well. After 4 hours, the MTT was removed and DMSO added to dissolve the blue formazan dye. Using a microtiter plate reader, the A505 was then determined and cell number calculated from blank-subtracted absorbance values.

SNB-19 = test: NCI 60 cell line screen (SRB), CNS Cancer
HL-60(TB) = test: NCI 60 cell line screen (SRB), Leukemia
TK-10 = test: NCI 60 cell line screen (SRB), Renal Cancer
IGROVI = test: NCI 60 cell line screen (SRB), Ovarian Cancer

## CC1=C(C=Cc2cccc(C=CC3=C(C)C4CCC(C)C5CCC6(C)OOC45C(O3)O6)c2)OC2OC3(C)CCC4C(C)CCC1C24OO3 (centres unmarked) [VII-g]
SK-MEL2; PG=0
  Log10TGI: >−4.00 log10M
SK-MEL2; PG=+50
  Log10 GI50 or LC50 (per conditions): −6.39 log10M
SK-MEL2; Table IV (LC50, PG=−50)
  Log10 GI50 or LC50 (per conditions): >−4.00 log10M
HS 578T; PG=0
  Log10TGI: −4.32 log10M
HS 578T; PG=+50
  Log10GI50: −7.14 log10M
HS 578T; Table IV (LC50, PG=−50)
  Log10GI50: >−4.00 log10M
U251; PG=0
  Log10TGI: >−4.00 log10M
U251; PG=+50
  Log10GI50: −6.86 log10M
U251; Table IV (LC50, PG=−50)
  Log10GI50: >−4.00 log10M
NCI-H460; PG=0
  Log10TGI: >−4.00 log10M
NCI-H460; PG=+50
  Log10 GI50 or Log10 LC50: −5.13 log10M
UACC-257; PG=0
  Log10TGI: −4.58 log10M
UACC-257; PG=+50
  Log10 GI50 (PG=+50) or Log10 LC50 (PG=−50): −7.09 log10M
UACC-257; Table IV (LC50, PG=−50)
  Log10 GI50 (PG=+50) or Log10 LC50 (PG=−50): >−4.00 log10M
SK-MEL-5; PG=0
  Log10TGI: −5.16 log10M
SK-MEL-5; PG=+50
  Log10 GI50 or LC50: −6.71 log10M
SK-MEL-5; Table IV (LC50, PG=−50)
  Log10 GI50 or LC50: >−4.00 log10M
UACC-62; PG=0
  Log10TGI: >−4.00 log10M
UACC-62; PG=+50
  Log10GI50: −5.46 log10M
UACC-62; Table IV (LC50, PG=−50)
  Log10GI50: >−4.00 log10M
HCT-116; PG=0
  Log10TGI: >−4.00 log10M
HCT-116; PG=+50
  Log10 GI50 (PG=+50) or Log10 LC50 (PG=−50), as given per row condition: −7.13 log10M
HCT-116; Table IV (LC50, PG=−50)
  Log10 GI50 (PG=+50) or Log10 LC50 (PG=−50), as given per row condition: >−4.00 log10M
RPMI-8226; PG=0
  Log10TGI: −7.25 log10M
RPMI-8226; PG=+50
  Log10GI50: −7.25 log10M
RPMI-8226; Table IV (LC50, PG=−50)
  Log10GI50: >−4.00 log10M
ACHN; PG=0
  Log10TGI: >−4.00 log10M
ACHN; PG=+50
  Log10 GI50 or LC50 (see conditions): −6.37 log10M
ACHN; Table IV (LC50, PG=−50)
  Log10 GI50 or LC50 (see conditions): >−4.00 log10M
MDA-MB231/ATCC; PG=0
  Log10TGI: −4.74 log10M
MDA-MB231/ATCC; PG=+50
  Log10 GI50 or LC50 (per conditions): −6.07 log10M
MDA-MB231/ATCC; Table IV (LC50, PG=−50)
  Log10 GI50 or LC50 (per conditions): >−4.00 log10M
MALME-3M; PG=0
  Log10TGI: −4.24 log10M
MALME-3M; PG=+50
  Log10GI50: −6.60 log10M
MALME-3M; Table IV (LC50, PG=−50)
  Log10GI50: >−4.00 log10M
CAKI-1; PG=+50
  Log10GI50: −6.22 log10M
CAKI-1; Table IV (LC50, PG=−50)
  Log10GI50: >−4.00 log10M
HT29; PG=0
  Log10TGI: >−4.00 log10M
HT29; PG=+50
  Log10GI50: −6.88 log10M
HT29; Table IV (LC50, PG=−50)
  Log10GI50: >−4.00 log10M
[1]
  antiproliferative activity in words: at least as antiproliferative as calcitriol
SNB-19; PG=0
  Log10TGI: >−4.00 log10M
SNB-19; PG=+50
  Log10GI50 or Log10LC50 (see condition): −6.48 log10M
SNB-19; Table IV (LC50, PG=−50)
  Log10GI50 or Log10LC50 (see condition): >−4.00 log10M
HL-60(TB); PG=0
  Log10TGI: −7.20 log10M
HL-60(TB); PG=+50
  Log10GI50: −7.20 log10M
HL-60(TB); Table IV (LC50, PG=−50)
  Log10GI50: >−4.00 log10M
TK-10; PG=0
  Log10TGI: >−4.00 log10M
TK-10; PG=+50
  Log10GI50: −6.48 log10M
TK-10; Table IV (LC50, PG=−50)
  Log10GI50: >−4.00 log10M
IGROVI; PG=0
  Log10TGI: −4.21 log10M
IGROVI; PG=+50
  Log10GI50: −5.16 log10M
IGROVI; Table IV (LC50, PG=−50)
  Log10GI50: >−4.00 log10M
